Test results from ChEMBL document CHEMBL5338723, “Emerging Target-Directed Approaches for the Treatment and Diagnosis of Microbial Infections” (J Med Chem, 2023).
Values after ≈ are worked out from the molar mass of the structure shown. Values belong to the compound of their own block, whether it stands above or below them. *1 amine or outer side, *2 acyl side, *3 side chain or, on linkers, in order; H or OH if unused. Where a SMILES comes first, the peptide text is derived from it. [ ]: non-standard residue; d: D form. X2 = Cn1c(=O)n([C@@H]2S[C@H]([C@@H](O)[C@@H](N[*:1])C(=O)[*:2])[C@H](O)[C@H]2O)cc/c1=N/C(N)=O; Orn(N5-OH,N5-Ac) = CC(=O)N(O)CCC[C@H](N)C(=O)O

What was measured:
Escherichia coli = assay: Antimicrobial activity against Escherichia coli assessed as microbial growth inhibition; assay type: functional
Streptococcus pneumoniae = assay: Antimicrobial activity against Streptococcus pneumoniae assessed as microbial growth inhibition; assay type: functional
Staphylococcus aureus [1] = assay: Antimicrobial activity against Staphylococcus aureus assessed as microbial growth inhibition; assay type: functional
Bacillus subtilis = assay: Antimicrobial activity against Bacillus subtilis assessed as microbial growth inhibition; assay type: functional
Enterococcus faecium = assay: Antimicrobial activity against vancomycin-resistant Enterococcus faecium ATCC 51559 assessed as microbial growth inhibition; assay type: functional
Enterococcus faecalis = assay: Antimicrobial activity against vancomycin-resistant Enterococcus faecalis ATCC 51575 assessed as microbial growth inhibition; assay type: functional
Staphylococcus aureus [2] = assay: Antimicrobial activity against vancomycin intermediate Staphylococcus aureus assessed as microbial growth inhibition; assay type: functional
Staphylococcus aureus [3] = assay: Antimicrobial activity against methicillin-resistant Staphylococcus aureus ATCC 33591 assessed as microbial growth inhibition; assay type: functional
Salmonella typhimurium = assay: Antimicrobial activity against Salmonella enterica subsp. enterica serovar Typhimurium assessed as increase in microbial growth inhibition; assay type: functional
Salmonella enteritidis = assay: Antimicrobial activity against Salmonella enterica subsp. enterica serovar Enteritidis assessed as increase in microbial growth inhibition; assay type: functional
Acinetobacter baumannii [4] = assay: Antimicrobial activity against Acinetobacter baumannii ATCC 17978 assessed as microbial growth inhibition under iron-deficient condition; assay type: functional
Acinetobacter baumannii [5] = assay: Antimicrobial activity against Acinetobacter baumannii ATCC 17961 assessed as microbial growth inhibition; assay type: functional
Acinetobacter baumannii [6] = assay: Antimicrobial activity against Acinetobacter baumannii ARC 3484 assessed as microbial growth inhibition; assay type: functional
Acinetobacter baumannii [7] = assay: Antimicrobial activity against Acinetobacter baumannii ARC 3486 assessed as microbial growth inhibition; assay type: functional
Acinetobacter baumannii [8] = assay: Antimicrobial activity against Acinetobacter baumannii ARC 5079 assessed as microbial growth inhibition; assay type: functional
Acinetobacter baumannii [9] = assay: Antimicrobial activity against Acinetobacter baumannii ARC 5081 assessed as microbial growth inhibition; assay type: functional
Acinetobacter baumannii [10] = assay: Antimicrobial activity against Acinetobacter baumannii ATCC 17978 assessed as microbial growth inhibition; assay type: functional
Acinetobacter baumannii [11] = assay: Antimicrobial activity against Acinetobacter baumannii ATCC 17978 pNT165 producing carbapenamase assessed as microbial growth inhibition; assay type: functional
Acinetobacter baumannii [12] = assay: Antimicrobial activity against Acinetobacter baumannii ATCC BAA 1710 assessed as microbial growth inhibition; assay type: functional
Acinetobacter baumannii [13] = assay: Antimicrobial activity against Acinetobacter baumannii ATCC 17978 pNT221 assessed as microbial growth inhibition; assay type: functional
Acinetobacter baumannii [14] = assay: Antimicrobial activity against Acinetobacter baumannii ATCC 17978 pNT255 assessed as microbial growth inhibition; assay type: functional
Acinetobacter baumannii [15] = assay: Antimicrobial activity against Acinetobacter baumannii ATCC 17978 pNT320 producing cephalosporinase assessed as microbial growth inhibition; assay type: functional
Acinetobacter baumannii [16] = assay: Antimicrobial activity against Acinetobacter baumannii ATCC BAA 1793 assessed as microbial growth inhibition; assay type: functional
Acinetobacter baumannii [17] = assay: Antimicrobial activity against Acinetobacter baumannii ATCC BAA 1797 assessed as microbial growth inhibition; assay type: functional
Acinetobacter baumannii [18] = assay: Antimicrobial activity against Acinetobacter baumannii ATCC BAA 1800 assessed as microbial growth inhibition; assay type: functional
Staphylococcus aureus [19] = assay: Antibacterial activity against Staphylococcus aureus assessed as microbial growth inhibition; assay type: functional, organism-based
Staphylococcus aureus [20] = assay: Potency index, ratio of ciprofloxacin MIC to test compound MIC for antimicrobial activity against Staphylococcus aureus; assay type: functional, organism-based

MIC (Escherichia coli): 0.031 µg/mL (≈ 0.0312 µM)
MIC (Streptococcus pneumoniae): 0.063 µg/mL (≈ 0.0634 µM)
MIC (Staphylococcus aureus [1]): 0.063 µg/mL (≈ 0.0634 µM)
MIC (Bacillus subtilis): 0.063 µg/mL (≈ 0.0634 µM)
Compound: CC(=O)N(O)CCC[C@H](NC(=O)[C@H](CCCN(O)C(C)=O)NC(=O)[C@@H](N)CCCN(O)C(C)=O)C(=O)N[C@@H](CO)C(=O)N[C@@H](C(=O)O)[C@H](O)[C@H]1S[C@@H](n2cc/c(=N/C(N)=O)n(C)c2=O)[C@H](O)[C@H]1O (H-[Orn(N5-OH,N5-Ac)][Orn(N5-OH,N5-Ac)][Orn(N5-OH,N5-Ac)]S[X2]-OH)

Compound: CN[C@H](CC(C)C)C(=O)N[C@H]1C(=O)N[C@@H](CC(N)=O)C(=O)N[C@H]2C(=O)N[C@H]3C(=O)N[C@H](C(=O)N[C@H](C(=O)NCCCNC(=O)[C@H](O)[C@@H](O)[C@H](O[C@H]4O[C@@H](CO)[C@@H](O)[C@@H](O)[C@@H]4O)[C@H](O)CO)c4cc(O)cc(O)c4-c4cc3ccc4O)[C@H](O)c3ccc(c(Cl)c3)Oc3cc2cc(c3O[C@@H]2O[C@H](CO)[C@@H](O)[C@H](O)[C@H]2O[C@H]2C[C@](C)(N)[C@H](O)[C@H](C)O2)Oc2ccc(cc2Cl)[C@H]1O
MIC (Enterococcus faecium): 36 µM (≈ 66.4 µg/mL)
MIC (Enterococcus faecalis): 30 µM (≈ 55.4 µg/mL)
MIC (Staphylococcus aureus [2]): 0.3 µM (≈ 0.554 µg/mL)
MIC (Staphylococcus aureus [3]): 0.4 µM (≈ 0.738 µg/mL)

MIC (Salmonella typhimurium): 0.01 µM
MIC (Salmonella enteritidis): 0.01 µM
Compound: CC1=C(C(=O)O)N2C(=O)[C@@H](NC(=O)[C@H](NC(=O)CCCc3cn(CCOCCOCCOCCNC(=O)c4cc(O)c(O)c(C(=O)N[C@H]5COC(=O)[C@@H](NC(=O)c6cc([C@@H]7O[C@H](CO)[C@@H](O)[C@H](O)[C@H]7O)cc(O)c6O)COC(=O)[C@@H](NC(=O)c6cc([C@@H]7O[C@H](CO)[C@@H](O)[C@H](O)[C@H]7O)cc(O)c6O)COC5=O)c4)nn3)c3ccccc3)[C@H]2SC1

MIC (Acinetobacter baumannii [4]): 64 µg/mL (≈ 174 µM)
Compound: N[C@@H](C(=O)N[C@@H]1C(=O)N2C(C(=O)O)=C(Cl)CS[C@H]12)c1ccccc1 [CEFACLOR ANHYDROUS]

MIC (Acinetobacter baumannii [5]): 0.2 µM (≈ 0.464 µg/mL)
MIC (Acinetobacter baumannii [6]): 0.2 µM (≈ 0.464 µg/mL)
MIC (Acinetobacter baumannii [7]): 0.2 µM (≈ 0.464 µg/mL)
MIC (Acinetobacter baumannii [8]): 0.2 µM (≈ 0.464 µg/mL)
MIC (Acinetobacter baumannii [9]): 0.2 µM (≈ 0.464 µg/mL)
MIC (Acinetobacter baumannii [10]): 0.2 µM (≈ 0.464 µg/mL)
MIC (Acinetobacter baumannii [11]): 0.2 µM (≈ 0.464 µg/mL)
MIC (Acinetobacter baumannii [12]): 0.2 µM (≈ 0.464 µg/mL)
MIC (Acinetobacter baumannii [13]): 0.2 µM (≈ 0.464 µg/mL)
MIC (Acinetobacter baumannii [14]): 0.2 µM (≈ 0.464 µg/mL)
MIC (Acinetobacter baumannii [15]): 0.2 µM (≈ 0.464 µg/mL)
MIC (Acinetobacter baumannii [16]): 0.2 µM (≈ 0.464 µg/mL)
MIC (Acinetobacter baumannii [17]): 0.2 µM (≈ 0.464 µg/mL)
MIC (Acinetobacter baumannii [18]): 0.2 µM (≈ 0.464 µg/mL)
Compound: CCCCCCCCCC(=O)N[C@@H](Cc1c[nH]c2ccccc12)C(=O)N[C@H](CC(N)=O)C(=O)N[C@@H](CC(=O)O)C(=O)N[C@@H]1C(=O)NCC(=O)N[C@@H](CCCNC(=O)CCCC(=O)N(O)CCCCCNC(=O)CCCN(CCCCNC(=O)c2cccc(O)c2O)CCCNC(=O)c2cccc(O)c2O)C(=O)N[C@@H](CC(=O)O)C(=O)N[C@H](C)C(=O)N[C@@H](CC(=O)O)C(=O)NCC(=O)N[C@H](CO)C(=O)N[C@@H](C(C)CC(=O)O)C(=O)N[C@@H](CC(=O)c2ccccc2N)C(=O)O[C@@H]1C (stereo partly specified)

MIC (Staphylococcus aureus [19]): 93 nM
Compound: Galbofloxacin
Ratio (Staphylococcus aureus [20]): 10

MIC (Salmonella typhimurium): 0.01 µM
MIC (Salmonella enteritidis): 0.01 µM
Compound: CC1(C)S[C@@H]2[C@H](NC(=O)[C@H](NC(=O)CCCc3cn(CCOCCOCCOCCNC(=O)c4cc(O)c(O)c(C(=O)N[C@H]5COC(=O)[C@@H](NC(=O)c6cc([C@@H]7O[C@H](CO)[C@@H](O)[C@H](O)[C@H]7O)cc(O)c6O)COC(=O)[C@@H](NC(=O)c6cc([C@@H]7O[C@H](CO)[C@@H](O)[C@H](O)[C@H]7O)cc(O)c6O)COC5=O)c4)nn3)c3ccccc3)C(=O)N2[C@H]1C(=O)O

MIC (Acinetobacter baumannii [4]): 0.5 µg/mL (≈ 0.532 µM)
Compound: C[C@H]1OC(c2cccc(O)c2O)=N[C@@H]1C(=O)N[C@@H](COC(=O)c1cccc(O)c1O)C(=O)NCCCCN(O)C(=O)N[C@@H](C(=O)N[C@@H]1C(=O)N2C(C(=O)O)=C(Cl)CS[C@H]12)c1ccccc1

MIC (Salmonella typhimurium): 0.01 µM
MIC (Salmonella enteritidis): 0.01 µM
Compound: CC1=C(C(=O)O)N2C(=O)[C@@H](NC(=O)[C@H](NC(=O)CCCc3cn(CCOCCOCCOCCNC(=O)c4cc(O)c(O)c(C(=O)N[C@H]5COC(=O)[C@@H](NC(=O)c6cccc(O)c6O)COC(=O)[C@@H](NC(=O)c6cccc(O)c6O)COC5=O)c4)nn3)c3ccccc3)[C@H]2SC1

Compound: CCCCCCCCCCN[C@@]1(C)C[C@H](O[C@H]2[C@H](Oc3c4cc5cc3Oc3ccc(cc3Cl)[C@@H](O)[C@@H](NC(=O)[C@@H](CC(C)C)NC)C(=O)N[C@@H](CC(N)=O)C(=O)N[C@H]5C(=O)N[C@H]3C(=O)N[C@H](C(=O)N[C@H](C(=O)NCCCNC(=O)[C@H](O)[C@@H](O)[C@H](O[C@H]5O[C@@H](CO)[C@@H](O)[C@@H](O)[C@@H]5O)[C@H](O)CO)c5cc(O)cc(O)c5-c5cc3ccc5O)[C@H](O)c3ccc(c(Cl)c3)O4)O[C@H](CO)[C@@H](O)[C@@H]2O)O[C@@H](C)[C@H]1O
MIC (Enterococcus faecium): 0.2 µM (≈ 0.397 µg/mL)
MIC (Enterococcus faecalis): 0.2 µM (≈ 0.397 µg/mL)
MIC (Staphylococcus aureus [2]): 0.2 µM (≈ 0.397 µg/mL)
MIC (Staphylococcus aureus [3]): 0.2 µM (≈ 0.397 µg/mL)
